Here are results for two compounds from patent EP2379549B1, “7-AZAINDIRUBINS, 7'-AZAINDIRUBINS, 7-7'-DIAZAINDIRUBIN AND THE CORRESPONDING 3'-OXIME ETHER DERIVATES: PRODUCTION THEREOF, THEIR PRODUCTION AND USE AS A MEDICAMENT” (Eisenbrand, Gerhard, priority 2008, dated 2010).

One experiment relates to human cancer cell lines. Description: Antiproliferative activity against human cancer cell lines. It counts as cell-based.
The next experiment relates to C6 glioblastoma cells. Particulars: murine C6 glioblastoma cells; parent 5-methylindirubin; cited from earlier work.

For the compound `O=C1Nc2ccccc2C1=C1Nc2ncccc2C1=O` [E843, 7'-Azaindirubin], in the experiment on human cancer cell lines, the “antiproliferative activity as compared to the parent molecule, indirubin” value is “markedly augmented”.
In the case of `Cc1cc2c(cc1O)NC(=O)C2=C1Nc2ccccc2C1=O`, the “effectiveness for inhibition of cells versus parent compound” value with C6 glioblastoma cells was “as effective as the parent compound”.
